The test system of assay [1] is prostate cancer xenograft. As to conditions: prostate cancer xenograft model, preclinical studies; cited from earlier work.
Assay [2] deals with tamoxifen-resistant MCF-7 breast cancer cells. As to the kind of experiment: Proliferation in tamoxifen-resistant MCF-7 breast cancer cells. It is filed as cell-based. The settings on record: no difference in AR expression levels, FIG. 2.
Assay [3] deals with MCF-7 breast cancer cells. Nature of the assay: E2-induced proliferation in MCF-7 breast cancer cells. It is filed as cell-based. The settings on record: FIG. 1.
Assay [4] relates to AR. As to conditions: variety of human prostate cancer cell lines; cited from earlier work.
Assay [5] has as its system AR. As to conditions: binding AR BF3 surface; FKBP52-receptor complex prevented from dissociating; cited from earlier work.
The subject of assay [6] is human prostate cancer cell lines. The settings on record: variety of human prostate cancer cell lines; cited from earlier work.
In the next assay the test system is ER. As to the kind of experiment: E2-induced ER chromatin binding / ER recruitment to E2-dependent promoters. The format is cell-based. The settings on record: FIG. 3.
For assay [7], the target named is T1, β-catenin interaction with AR (Homo sapiens, UniProt P10275).
T1 sequence (P10275 1-920): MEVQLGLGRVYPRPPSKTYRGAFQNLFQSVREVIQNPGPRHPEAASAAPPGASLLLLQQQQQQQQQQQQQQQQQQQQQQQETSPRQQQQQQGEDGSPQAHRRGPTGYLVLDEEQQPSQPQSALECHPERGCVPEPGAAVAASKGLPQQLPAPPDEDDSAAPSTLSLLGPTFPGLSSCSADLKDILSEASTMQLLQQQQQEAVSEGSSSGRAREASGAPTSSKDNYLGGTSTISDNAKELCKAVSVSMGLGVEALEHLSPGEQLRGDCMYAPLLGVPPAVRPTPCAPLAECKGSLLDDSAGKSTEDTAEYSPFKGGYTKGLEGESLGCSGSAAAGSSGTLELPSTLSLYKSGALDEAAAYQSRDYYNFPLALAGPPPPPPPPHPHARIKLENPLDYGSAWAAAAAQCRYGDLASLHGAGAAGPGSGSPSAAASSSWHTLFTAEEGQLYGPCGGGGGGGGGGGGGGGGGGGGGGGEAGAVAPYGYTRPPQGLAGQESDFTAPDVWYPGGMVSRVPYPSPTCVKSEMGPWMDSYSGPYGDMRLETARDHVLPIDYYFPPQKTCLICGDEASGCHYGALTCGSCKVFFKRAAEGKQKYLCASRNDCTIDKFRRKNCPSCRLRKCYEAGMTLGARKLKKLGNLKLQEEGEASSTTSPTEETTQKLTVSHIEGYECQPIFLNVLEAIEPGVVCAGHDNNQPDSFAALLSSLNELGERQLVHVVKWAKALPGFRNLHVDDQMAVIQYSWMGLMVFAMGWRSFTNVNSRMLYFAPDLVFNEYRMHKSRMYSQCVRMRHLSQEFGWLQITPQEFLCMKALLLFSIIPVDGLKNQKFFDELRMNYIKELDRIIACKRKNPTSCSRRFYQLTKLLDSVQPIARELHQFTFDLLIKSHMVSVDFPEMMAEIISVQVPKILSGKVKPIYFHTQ
As to the kind of experiment: β-catenin interaction with AR. The settings on record: MJC13 targeting to the AR BF3 surface; prostate cancer cells.

Results on 1 compound are retold here after patent US10434075B2, “FKBP52 specific androgen receptor inhibitor, MJC13, for use in treating breast cancer” (THE BOARD OF REGENTS OF THE UNIVERSITY OF TEXAS SYSTEM, priority 2016, dated 2019).

Structures are written as SMILES. Entries after “also recorded” stand apart in the source; their conditions may differ.

As to `O=C(Nc1cccc(Cl)c1Cl)C1CCCCC1` [MJC13], the tumor growth entry in assay [1] is on record as “impressive effects on tumor growth”. Moreover, the cell proliferation result in assay [2] is “effectively inhibits cell proliferation”. Also, in assay [3], the E2-induced proliferation entry is given as “inhibits E2-induced proliferation; also recorded: effective inhibitor of E2-induced BC cell proliferation”. Besides, the AR signaling entry in the assay on AR [4] is recorded as “effectively block AR signaling”. In the assay on AR [5], the AR cellular localisation result was “retention of AR in the cytoplasm”. Further, the “AR-dependent cancer cell proliferation” value in assay [6] is listed as “effectively block”. In the assay with ER, the “E2-induced ER chromatin binding” value is on record as “significantly decreases E2-induced ER chromatin binding; also recorded: affects ER recruitment to E2-dependent promoters”. In assay [7], the “β-catenin interaction with AR” value is “abrogates β-catenin interaction with AR”.
